Results: BindingDB's records for doi:10.1016/j.bmcl.2006.03.080 (University of Siena, 2006)

Columns and labels:
[1] = Antiviral activity against wild type HIV1 NL4-3 in MT4 cells by MTT assay
[2] = Antiviral activity against HIV1 K103N mutant in MT4 cells by MTT assay
[3] = Antiviral activity against HIV1 IRLL98 in MT4 cells by MTT assay
[4] = Antiviral activity against HIV1 Y188L mutant in MT4 cells by MTT assay
[5] = Antiviral activity against HIV1 Y181C mutant in MT4 cells by MTT assay

SMILES | EC50 [1] | EC50 [2] | EC50 [3] | EC50 [4] | EC50 [5]
COc1ccc(Sc2nc(Cc3c(F)cccc3F)c(C)c(=O)[nH]2)cc1 | 0.67 µM | > 57.5 µM | > 57.5 µM | > 57.5 µM | 
COc1ccc(Sc2nc(Cc3c(Cl)cccc3Cl)c(C)c(=O)[nH]2)cc1 | 26.5 µM | > 61.4 µM | > 61.4 µM | > 61.4 µM | > 61.4 µM
Cc1c(Cc2c(F)cccc2F)nc(Sc2ccc(Cl)cc2)[nH]c1=O | 0.1 µM | 8.01 µM | > 66.1 µM | > 66.1 µM | 
Cc1c(Cc2c(Cl)cccc2Cl)nc(Sc2ccc(F)cc2F)[nH]c1=O | 3.36 µM | > 60.5 µM | 44.7 µM | > 60.5 µM | 
Cc1c(Cc2c(F)cccc2F)nc(Sc2ccccc2)[nH]c1=O | 0.09 µM | 42.5 µM | 16.7 µM | > 72.7 µM | 
COc1ccc(Sc2nc(Cc3c(Cl)cccc3Cl)c(C)c(=O)[nH]2)cn1 | 2.72 µM | > 61.7 µM | 8.68 µM | > 61.3 µM | 6.52 µM
Cc1c(Cc2c(Cl)cccc2Cl)nc(Sc2ccc(C#N)cc2)[nH]c1=O | 2.49 µM | > 27.6 µM | > 27.6 µM | > 27.6 µM | 5.1 µM
Cc1c(Cc2c(F)cccc2F)nc(Sc2ccc(F)cc2F)[nH]c1=O | 0.31 µM | > 65.8 µM | 25.8 µM | > 65.8 µM | 
Cc1c(Cc2c(Cl)cccc2Cl)nc(Sc2ccccc2)[nH]c1=O | 1.8 µM | > 66.3 µM | 4.91 µM | > 66.3 µM | 12.1 µM
Cc1cn([C@H]2C[C@H](N=[N+]=[N-])[C@@H](CO)O2)c(=O)[nH]c1=O [1-((2R,4S,5S)-4-Azido-5-hydroxymethyl-tetrahydro-furan-2-yl)-5-methyl-1H-pyrimidine-2,4-dione] |  | 0.003 µM | 0.008 µM | 0.003 µM | 
